Experimental data from patent US10077261B2, “Imidazolin-5-one derivative useful as FASN inhibitors for the treatment of cancer” (Janssen Pharmaceutica NV, priority 2012, dated 2018).

Assays:
A2780 ovarian cells [1] = test: A2780 ovarian cell proliferation assay in lipid reduced medium, with palmitate (MTT); format: cell-based; details: Homo sapiens, A2780, 96 h; read-out: pIC50 A2780 Ovarian Cell, With Palmitate (converted)
In short: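 In this palmitate-supplemented format, compound dilutions (30 μM down to 0.01 μM) are added to cells in lipid-reduced serum with 25 μM palmitate, 0.2% fatty-acid-free BSA and 0.25% ethanol. After four days (96 h) MTT absorbance at 544 nm is recorded and fitted by minimum sum of squares.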

[2] = biological target: T1, hFASN enzyme (full length) (Homo sapiens, UniProt P49327); test: Fatty Acid Synthase (FASN) inhibition scintillation proximity assay; format: biochemical; details: for inhibition at 10 µM: read-out: Human FASN % inhibition @ 10 μM, 10 μM test compound; for IC50: read-out: Human FASN pIC50 (converted)
T1 construct: 10 μL hFASN enzyme (full length, 300 ng, purified in house); made in house
T1 sequence (P49327 whole entry): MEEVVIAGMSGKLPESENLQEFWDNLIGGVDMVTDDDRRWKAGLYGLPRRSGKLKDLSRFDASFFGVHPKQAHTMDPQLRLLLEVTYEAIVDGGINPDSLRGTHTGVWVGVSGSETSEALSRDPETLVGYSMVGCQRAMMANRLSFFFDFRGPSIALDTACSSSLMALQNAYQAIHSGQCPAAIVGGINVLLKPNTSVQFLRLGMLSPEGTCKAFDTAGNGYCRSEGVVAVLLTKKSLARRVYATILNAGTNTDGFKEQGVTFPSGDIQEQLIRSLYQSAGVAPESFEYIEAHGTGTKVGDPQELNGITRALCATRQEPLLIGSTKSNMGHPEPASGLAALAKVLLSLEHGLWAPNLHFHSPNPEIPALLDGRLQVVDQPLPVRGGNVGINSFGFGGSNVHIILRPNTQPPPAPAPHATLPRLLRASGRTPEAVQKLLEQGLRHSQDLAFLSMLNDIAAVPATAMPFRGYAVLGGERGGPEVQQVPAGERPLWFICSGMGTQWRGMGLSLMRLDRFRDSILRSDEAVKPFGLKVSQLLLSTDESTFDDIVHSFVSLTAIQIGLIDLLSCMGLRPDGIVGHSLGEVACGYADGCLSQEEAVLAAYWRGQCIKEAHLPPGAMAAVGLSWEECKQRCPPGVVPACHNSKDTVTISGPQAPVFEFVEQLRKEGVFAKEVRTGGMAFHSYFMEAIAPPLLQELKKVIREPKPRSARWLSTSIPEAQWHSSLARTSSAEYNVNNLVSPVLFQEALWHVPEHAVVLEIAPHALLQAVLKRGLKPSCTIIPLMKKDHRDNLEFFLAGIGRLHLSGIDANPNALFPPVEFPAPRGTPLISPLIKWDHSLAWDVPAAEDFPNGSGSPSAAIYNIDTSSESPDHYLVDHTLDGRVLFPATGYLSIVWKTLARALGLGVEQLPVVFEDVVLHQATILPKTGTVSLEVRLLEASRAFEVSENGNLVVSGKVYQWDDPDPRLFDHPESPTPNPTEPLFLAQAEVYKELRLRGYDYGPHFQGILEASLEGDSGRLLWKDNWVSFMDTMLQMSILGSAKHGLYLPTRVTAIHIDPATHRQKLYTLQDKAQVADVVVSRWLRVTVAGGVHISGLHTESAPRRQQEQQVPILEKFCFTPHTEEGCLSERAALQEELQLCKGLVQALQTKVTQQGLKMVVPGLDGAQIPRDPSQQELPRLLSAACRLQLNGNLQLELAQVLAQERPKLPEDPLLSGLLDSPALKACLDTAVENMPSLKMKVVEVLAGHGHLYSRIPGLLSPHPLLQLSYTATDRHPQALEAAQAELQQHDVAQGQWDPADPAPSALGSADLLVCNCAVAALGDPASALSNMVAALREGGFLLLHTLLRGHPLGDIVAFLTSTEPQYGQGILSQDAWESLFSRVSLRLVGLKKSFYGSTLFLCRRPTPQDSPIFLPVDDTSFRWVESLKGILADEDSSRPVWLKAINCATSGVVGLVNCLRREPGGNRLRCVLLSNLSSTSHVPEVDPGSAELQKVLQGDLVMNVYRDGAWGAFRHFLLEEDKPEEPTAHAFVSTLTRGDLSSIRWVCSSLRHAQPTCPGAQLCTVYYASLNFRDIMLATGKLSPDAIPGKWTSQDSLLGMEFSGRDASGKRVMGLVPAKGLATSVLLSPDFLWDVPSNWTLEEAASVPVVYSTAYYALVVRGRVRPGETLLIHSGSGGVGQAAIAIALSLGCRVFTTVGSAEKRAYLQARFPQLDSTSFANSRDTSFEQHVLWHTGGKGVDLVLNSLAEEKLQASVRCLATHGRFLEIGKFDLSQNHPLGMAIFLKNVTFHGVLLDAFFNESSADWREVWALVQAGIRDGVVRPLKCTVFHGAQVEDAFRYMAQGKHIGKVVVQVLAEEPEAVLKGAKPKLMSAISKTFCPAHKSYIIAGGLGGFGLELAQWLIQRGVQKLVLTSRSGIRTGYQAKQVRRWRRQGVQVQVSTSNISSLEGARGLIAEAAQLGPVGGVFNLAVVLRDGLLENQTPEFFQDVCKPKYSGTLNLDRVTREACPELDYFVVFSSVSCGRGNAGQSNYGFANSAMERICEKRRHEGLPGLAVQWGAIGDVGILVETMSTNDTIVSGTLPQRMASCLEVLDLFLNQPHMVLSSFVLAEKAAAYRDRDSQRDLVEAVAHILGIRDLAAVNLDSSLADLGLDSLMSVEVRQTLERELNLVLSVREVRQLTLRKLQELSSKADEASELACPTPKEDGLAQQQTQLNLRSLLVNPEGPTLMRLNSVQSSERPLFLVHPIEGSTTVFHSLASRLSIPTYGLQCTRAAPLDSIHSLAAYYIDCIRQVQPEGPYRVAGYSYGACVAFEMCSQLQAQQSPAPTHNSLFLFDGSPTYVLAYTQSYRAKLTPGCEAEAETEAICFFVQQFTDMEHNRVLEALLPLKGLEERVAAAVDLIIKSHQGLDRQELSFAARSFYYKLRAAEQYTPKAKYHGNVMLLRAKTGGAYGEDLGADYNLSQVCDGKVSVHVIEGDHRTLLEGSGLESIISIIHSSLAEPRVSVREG
In short: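 Proximity read-out: hydrophobic ^3H-palmitate formed from ^3H-acetyl-CoA and malonyl-CoA binds streptavidin imaging beads, imaged at 610±20 nm at least 24 h after stopping. Enzyme was in-house purified full-length hFASN, 300 ng, in pH 7.5 phosphate/DTT buffer; compound series 30 μM down to 0.01 μM, normalized to controls, 4-parameter fit.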

[3] = biological target: Fatty Acid Synthase Keto-reductase Domain (FASN KR) (Homo sapiens, UniProt P49327); test: Fatty Acid Synthase keto-reductase domain (FASN KR) inhibition, NADPH oxidation at 340 nm
Fatty Acid Synthase Keto-reductase Domain (FASN KR), sequence (P49327 whole entry, the tested form may be a part): as the sequence (P49327 whole entry) above
Procedure: After 20 minutes incubation at room temperature the plate was measured again (T2).
The decrease in absorbance was calculated as (Absorbance before incubation T1)−(Absorbance following incubation T2).
A plot of Controlmin versus test compound concentration was fitted to a 4-parameter logistic curve using a non-linear least squares regression method.

A2780 ovarian cells [4] = test: A2780 ovarian cell proliferation assay in lipid reduced medium, without palmitate (MTT); format: cell-based; details: Homo sapiens, A2780, 96 h; read-out: pIC50 A2780 Ovarian Cell, Without Palmitate (converted)
[5] = tested on: PC-3M-Luc-C6 prostate cells; test: In vitro PC-3M-Luc-C6 prostate cell proliferation assay in lipid reduced medium; format: cell-based; details: 96 h, read-out: pIC50 PC-3M-Luc-C6 prostate cell (converted)
[6] = tested on: LNCaP-Vancouver prostate cells; test: In vitro LNCaP Vancouver prostate cell proliferation assay in lipid reduced medium; format: cell-based; details: read-out: pIC50 LNCaP_Vancouver prostate cell (converted)

Row | IC50 (A2780 ovarian cells [1]) | inhibition at 10 µM [2] | IC50 [2] | IC50 [3] | IC50 (A2780 ovarian cells [4]) | IC50 [5] | IC50 [6] | Compound
1 | > 10 µM | 93% | 224 nM | 977 nM | ~3800 nM | 1910 nM | 7240 nM | N#Cc1cc2cc(-c3ccc(C4=NC5(CC5)C(=O)N4C[C@@H]4CCN(C(=O)C5CC5)C4)cc3F)ccc2o1 [compound 463, 5-[4-(6-{[(3R)-1-(Cyclopropylcarbonyl)pyrrolidin-3-yl]methyl}-7-oxo-4,6-diazaspiro[2.4]hept-4-en-5-yl)-2-fluorophenyl]-1-benzofuran-2-carbonitrile]
2 | > 10 µM | 93% | 331 nM | 977 nM | 759 nM | 776 nM | 2880 nM | O=C(C1CC1)N1CC[C@@H](CN2C(=O)C3(CC3)N=C2c2ccc(-c3ccc4c(=O)[nH]ccc4c3)cc2)C1 [compound 467, 6-[4-(6-{[(3R)-1-(Cyclopropylcarbonyl)pyrrolidin-3-yl]methyl}-7-oxo-4,6-diazaspiro[2.4]hept-4-en-5-yl)phenyl]isoquinolin-1(2H)-one]
3 | > 10 µM | 90% | 427 nM | 1580 nM | 661 nM | 550 nM | 2040 nM | COc1nccc2cc(-c3ccc(C4=NC5(CC5)C(=O)N4C[C@@H]4CCN(C(=O)C5CC5)C4)cc3)ccc12 [compound 468, 6-{[(3R)-1-(Cyclopropylcarbonyl)pyrrolidin-3-yl]methyl}-5-[4-(1-methoxyisoquinolin-6-yl)phenyl]-4,6-diazaspiro[2.4]hept-4-en-7-one]
4 | > 10 µM | 98% | 182 nM | 115 nM | ~933 nM | ~631 nM | 1480 nM | COc1cc2cc(-c3ccc(C4=NC5(CC5)C(=O)N4C[C@@H]4CCN(C(=O)C5CC5)C4)cc3)ccc2cn1 [compound 470, 6-{[(3R)-1-(Cyclopropylcarbonyl)pyrrolidin-3-yl]methyl}-5-[4-(3-methoxyisoquinolin-6-yl)phenyl]-4,6-diazaspiro[2.4]hept-4-en-7-one]
5 | > 10 µM | 93% | 166 nM | 372 nM | 813 nM | 661 nM | 3310 nM | N#Cc1cc2cc(-c3ccc(C4=NC5(CC5)C(=O)N4CC4CN(C(=O)C5CC5)C4)cc3)ccc2o1 [compound 475, 5-[4-(6-{[1-(Cyclopropylcarbonyl)azetidin-3-yl]methyl}-7-oxo-4,6-diazaspiro[2.4]hept-4-en-5-yl)phenyl]-1-benzofuran-2-carbonitrile]
6 | > 10 µM | 95% | 162 nM | 447 nM | 692 nM | 302 nM | 933 nM | O=C(C1CC1)N1CC[C@@H](CN2C(=O)C3(CC3)N=C2c2ccc(-c3ccc4c(Cl)nccc4c3)cc2)C1 [compound 479, 5-[4-(1-Chloroisoquinolin-6-yl)phenyl]-6-{[(3R)-1-(cyclopropylcarbonyl)pyrrolidin-3-yl]methyl}-4,6-diazaspiro[2.4]hept-4-en-7-one]
7 | > 10 µM | 95% | 107 nM | 174 nM | 47.9 nM | ~91.2 nM | 380 nM | Cn1nc(N)c2ccc(-c3ccc(C4=NC5(CC5)C(=O)N4C[C@@H]4CCN(C(=O)C5CC5)C4)cc3)cc21 [compound 483, 5-[4-(3-Amino-1-methyl-1H-indazol-6-yl)phenyl]-6-{[(3R)-1-(cyclopropylcarbonyl)pyrrolidin-3-yl]methyl}-4,6-diazaspiro[2.4]hept-4-en-7-one]
8 | > 10 µM | 99% | 151 nM | 257 nM | 95.5 nM | 151 nM | 550 nM | COCc1nn(C)c2cc(-c3ccc(C4=NC5(CC5)C(=O)N4C[C@@H]4CCN(C(=O)C5CC5)C4)cc3)ccc12 [compound 484, 6-{[(3R)-1-(Cyclopropylcarbonyl)pyrrolidin-3-yl]methyl}-5-{4-[3-(methoxymethyl)-1-methyl-1H-indazol-6-yl]phenyl}-4,6-diazaspiro[2.4]hept-4-en-7-one]
9 | > 10 µM | 96% | 162 nM | 302 nM | ~123 nM | 214 nM | 631 nM | Cn1nc(CO)c2ccc(-c3ccc(C4=NC5(CC5)C(=O)N4C[C@@H]4CCN(C(=O)C5CC5)C4)cc3)cc21 [compound 485, 6-{[(3R)-1-(Cyclopropylcarbonyl)pyrrolidin-3-yl]methyl}-5-{4-[3-(hydroxymethyl)-1-methyl-1H-indazol-6-yl]phenyl}-4,6-diazaspiro[2.4]hept-4-en-7-one]
10 | > 10 µM | 81% | 1510 nM | 2630 nM | ~2190 nM | ~2820 nM | 4470 nM | COCc1c2ccc(-c3ccc(C4=NC5(CC5)C(=O)N4C[C@@H]4CCN(C(=O)C5CC5)C4)cc3)cc2nn1C [compound 486, 6-{[(3R)-1-(Cyclopropylcarbonyl)pyrrolidin-3-yl]methyl}-5-{4-[3-(methoxymethyl)-2-methyl-2H-indazol-6-yl]phenyl}-4,6-diazaspiro[2.4]hept-4-en-7-one]
11 | > 10 µM | 88% | 214 nM | 501 nM | 302 nM | 575 nM | 1550 nM | Cc1cc(-c2ccc3c(cnn3C)c2)ccc1C1=NC2(CC2)C(=O)N1CC1CN(C(=O)N(C)C)C1 [compound 488, N,N-Dimethyl-3-({5-[2-methyl-4-(1-methyl-1H-indazol-5-yl)phenyl]-7-oxo-4,6-diazaspiro[2.4]hept-4-en-6-yl}methyl)azetidine-1-carboxamide]
12 | > 10 µM | 98% | 166 nM | 427 nM | ~209 nM | 158 nM | 1260 nM | Cn1nc(C#N)c2ccc(-c3ccc(C4=NC5(CC5)C(=O)N4C[C@@H]4CCN(C(=O)C5CC5)C4)cc3)cc21 [compound 493, 6-[4-(6-{[(3R)-1-(Cyclopropylcarbonyl)pyrrolidin-3-yl]methyl}-7-oxo-4,6-diazaspiro[2.4]hept-4-en-5-yl)phenyl]-1-methyl-1H-indazole-3-carbonitrile]
13 | > 10 µM | 95% | 219 nM | 661 nM | 692 nM | 891 nM | 4680 nM | NC(=O)c1cccc(-c2ccc(C3=NC4(CC4)C(=O)N3C[C@@H]3CCN(C(=O)C4CC4)C3)cc2)c1 [compound 494, 4′-(6-{[(3R)-1-(Cyclopropylcarbonyl)pyrrolidin-3-yl]methyl}-7-oxo-4,6-diazaspiro[2.4]hept-4-en-5-yl)biphenyl-3-carboxamide]
14 | > 10 µM | 95% | 257 nM | 724 nM | 275 nM | ~589 nM | ~3240 nM | Cc1cc(-c2ccc3c(cnn3C)c2)ccc1C1=NC2(CC2)C(=O)N1CC1CN(C(=O)C(C)(C)O)C1 [compound 495, 6-{[1-(2-Hydroxy-2-methylpropanoyl)azetidin-3-yl]methyl}-5-[2-methyl-4-(1-methyl-1H-indazol-5-yl)phenyl]-4,6-diazaspiro[2.4]hept-4-en-7-one]
15 | > 10 µM | 94% | 302 nM | 575 nM | 209 nM | ~355 nM | 1740 nM | Cc1cc(-c2ccc3c(cnn3C)c2)ccc1C1=NC2(CC2)C(=O)N1CC1CN(C(=O)C2(C)COC2)C1 [compound 496, 5-[2-Methyl-4-(1-methyl-1H-indazol-5-yl)phenyl]-6-({1-[(3-methyloxetan-3-yl)carbonyl]azetidin-3-yl}methyl)-4,6-diazaspiro[2.4]hept-4-en-7-one]
16 | > 10 µM | 97% | 427 nM | 631 nM | 389 nM | 501 nM | 2570 nM | Cc1cc(-c2ccc(C3=NC4(CC4)C(=O)N3CC3CN(C(=O)C4CC4)C3)c(F)c2)cc2cnn(C)c12 [compound 520, 6-{[1-(Cyclopropylcarbonyl)azetidin-3-yl]methyl}-5-[4-(1,7-dimethyl-1H-indazol-5-yl)-2-fluorophenyl]-4,6-diazaspiro[2.4]hept-4-en-7-one]
17 | > 10 µM | 94% | 513 nM | 676 nM | ~339 nM | 603 nM | 1910 nM | CCn1ncc2cc(-c3ccc(C4=NC5(CC5)C(=O)N4CC4CN(C(=O)C5CC5)C4)c(F)c3)ccc21 [compound 521, 6-{[1-(Cyclopropylcarbonyl)azetidin-3-yl]methyl}-5-[4-(1-ethyl-1H-indazol-5-yl)-2-fluorophenyl]-4,6-diazaspiro[2.4]hept-4-en-7-one]
